Results taken from patent publication US6380146B1, “Bleaching detergent compositions” (priority 1999, dated 2002).
Where two headings read alike, the source gives them in different places.

How the values were obtained:
[1] = tested on: phenol oxidizing enzyme from Acremonium murorum; assay: Dye damage of the phenol oxidizing enzyme/enhancer system on colored swatch P10, consecutive washes in detergent formulation; details: enzyme 20 mg/l, enhancer 250 μM, 40° C., 1 hour
Procedure: A number of colored swatches were washed to assess the degree to which the enzymatic bleach system provokes dye damage. Each swatch was subjected to 5 consecutive washes in a detergent formulation. The closed containers were agitated by putting them in a washing machine. The machine was run for 1 hour with the water heated to 40° C. The pH of the wash solution was set to pH 9. The phenol oxidizing enzyme from Acremonium murorum (see above) was added to the wash solution at 20 mg/l. The enhancers were all dosed at 250 μM.

[2] = tested on: phenol oxidizing enzyme from Acremonium murorum; details: enhancer 250 μM, detergent formulation 2 g/l, pH 9, 30 min, 30° C.; for Stain bleach performance ΔE, Tomato Extract, With enzyme: enzyme 20 mg/l; for Stain bleach performance ΔE, Tomato Extract, Without enzyme: no enzyme
Procedure: (§1) The potential of the various enhancer to boost the bleach performance of phenol oxidizing enzyme was assessed by washing cotton swatches soiled with tomato stains. Two different bleach monitors were used:
Tomato extract material was prepared by acetone extraction of the chromophores from concentrated tomato paste. For the preparation of the stains, the colored acetone solution was applied to cotton swatches
(§2) The pH of the wash solution was set to pH 9. Purified phenol oxidizing enzyme from Acremonium murorum was added to the wash solution at 20 mg/l. […] The enhancers were all dosed at 250 μM. The wash solution was 50 mM Tris buffer.
(§3) The swatches were washed during 30 minutes, at 30° C. After the wash, the swatches were tumble-dried and the reflectance spectra were measured using a Minolta spectrometer. The color differences between the swatch before and after the wash data were expressed in the CIELAB L*a*b* color space. In this color space, L* indicates lightness and a* and b* are the chromaticity coordinates. Color differences between two swatches are expressed as ΔE, which is calculated from the following equation:
(§4) ΔE={square root over (ΔL^2[…] )}

[3] = tested on: phenol oxidizing enzyme from Acremonium murorum
Text: The bleaching detergent composition of the present invention comprise one or more surfactants, a phenol oxidizing enzyme and a compound which acts as enhancer for the phenol oxidizing enzyme, said composition having an Enhancer Index as herein defined of at least 12. The Enhancer Index is defined for the purpose of this invention as the ratio of the bleach effect on tomato stains to the colored monitor P10 (ΔEtomato stain/ΔEP10 colored monitor) , and is further illustrated in the Examples. […] Preferably, the Enhancer Index is at least 15, and in particular in the range of 15-50.
In order to express the potential of the various enhancers to provoke stain bleaching in the absence of dye damage, the ratio of bleach effect on the tomato stains to the colored monitor P10 was calculated (ΔEtomato stain/ΔEP10 colored monitor) . This ratio, when tomato extract is used as the stain, is referred to as the ‘Ehancer Index’.

[4] = tested on: phenol oxidizing enzyme from Acremonium murorum; assay: Dye damage of the phenol oxidizing enzyme/enhancer system on dyed swatches, 3 washes in Tris buffer; details: Tris buffer pH 8, enzyme 20 mg/l, enhancer 250 μM; for Color difference (ΔE) dyed swatch OO2 after 3 washes: Dyed Monitor OO2, 3 washes; for Color difference (ΔE) dyed swatch OO6 after 3 washes: Dyed Monitor OO6, 3 washes; for Color difference (ΔE) dyed swatch P10 after 3 washes: Dyed Monitor P10, 3 washes; for Color difference (ΔE) dyed swatch PO8 after 3 washes: Dyed Monitor PO8, 3 washes
Procedure: A number of colored swatches were washed to assess the degree to which the enzymatic bleach system provokes dye damage. […] The closed containers were agitated by putting them in a washing machine. The machine was run for 1 hour with the water heated to 40° C. […] The phenol oxidizing enzyme from Acremonium murorum (see above) was added to the wash solution at 20 mg/l. The enhancers were all dosed at 250 μM.

[5] = tested on: phenol oxidizing enzyme from Acremonium murorum; assay: Bleaching of oily tomato stains on cotton swatches by phenol oxidizing enzyme/enhancer system; details: enhancer 250 μM, detergent formulation 2 g/l, pH 9, 30 min, 30° C.; for Stain bleach performance ΔE, Oily Tomato Stain, With enzyme: enzyme 20 mg/l; for Stain bleach performance ΔE, Oily Tomato Stain, Without enzyme: no enzyme
Procedure: as §1
Oily tomato stains were prepared by applying heated concentrated tomato paste, to which 5 wt % Soya oil was added, to cotton swatches.
as §2, §3, §4

[6] = ΔE oily tomato stain/ΔE P10, 50 mM Tris buffer solution
[7] = ΔE oily tomato stain/ΔE P10, detergent formulation
[8] = ΔE tomato extract/ΔE P10, 50 mM Tris buffer solution
[9] = ΔE tomato extract/ΔE P10, detergent formulation

Row | Structure (SMILES) | Color difference (ΔE) original P10 swatch vs after 1st wash [1] | Color difference (ΔE) original P10 swatch vs after 2nd wash [1] | Color difference (ΔE) original P10 swatch vs after 3rd wash [1] | Color difference (ΔE) original P10 swatch vs after 4th wash [1] | Color difference (ΔE) original P10 swatch vs after 5th wash [1] | Stain bleach performance ΔE, Tomato Extract, With enzyme [2] | Stain bleach performance ΔE, Tomato Extract, Without enzyme [2] | Ratio Bleach on Stain Monitor/Dye Damage, Oily Tomato Stain [3, 6] | Ratio Bleach on Stain Monitor/Dye Damage, Oily Tomato Stain [3, 7] | Ratio Bleach on Stain Monitor/Dye Damage, Tomato Extract (Enhancer Index) [3, 8] | Ratio Bleach on Stain Monitor/Dye Damage, Tomato Extract (Enhancer Index) [3, 9] | Color difference (ΔE) dyed swatch OO2 after 3 washes [4] | Color difference (ΔE) dyed swatch OO6 after 3 washes [4] | Color difference (ΔE) dyed swatch P10 after 3 washes [4] | Color difference (ΔE) dyed swatch PO8 after 3 washes [4] | Stain bleach performance ΔE, Oily Tomato Stain, With enzyme [5] | Stain bleach performance ΔE, Oily Tomato Stain, Without enzyme [5]
1 | Cc1ccc(S(=O)(=O)Nc2cc(Br)c(O)c(Br)c2Br)cc1 [3Brphenol3MeBSA, N-(2,3,5-tribromo-4-hydroxyphenyl)-4-Methyl Benzenesulfonamide] | 0.93 | 0.98 | 1.10 | 1.62 | 1.86 | 27.57 | 12.86 | 6.46 | 6.29 | 20.40 | 14.82 | 0.41 | 4.59 | 0.96 | 1.52 | 11.71 | 6.87
2 | CCn1c(=NN=c2sc3cc(S(=O)(=O)O)ccc3n2CC)sc2cc(S(=O)(=O)O)ccc21 [ABTS] | 1.61 | 1.51 | 3.29 | 4.99 | 6.52 | 37.56 | 11.12 | 2.66 | 4.22 | 2.93 | 5.76 | 3.47 | 19.70 | 12.18 | 24.02 | 27.53 | 8.67
3 | O=S(=O)(Nc1cc(Br)c(O)c(Br)c1Br)c1ccccc1 [Enhancer 3BrphenolBSA, N-(2,3,5-tribromo-4-hydroxyphenyl)-Benzenesulfonamide] | 1.69 | 1.17 | 1.20 | 1.55 | 1.77 | 26.87 | 12.99 | 5.62 | 6.18 | 19.97 | 15.18 | 0.47 | 4.45 | 1.00 | 1.45 | 10.95 | 6.89
4 | O=C(O)CCN1c2ccccc2Sc2ccccc21 [PTP, Phenothiazine-10-propionate] | 0.51 | 0.78 | 1.79 | 2.63 | 3.25 | 33.66 | 12.00 | 0.69 | 2.89 | 3.59 | 10.35 | 6.34 | 15.64 | 9.66 | 12.57 | 9.41 | 8.54
